# In patent publication US20140206534A1, “FORMULATION” (SYNGENTA LIMITED, priority 2011, published 2014):
# Columns and labels:
# [1] = Visual release rate test of Bitrex in water; format: physicochemical; settings: after 15 minutes; 0.4 mg agitated in 10 ml water
# Description: 0.4 mg of sample was agitated in 10 ml of water and observed over 8 hours.
# [2] = UV/Vis release rate measurement of Bitrex in water; format: physicochemical; settings: 100 mg in 40 ml water, shaken
# Description: 2 ml of the mixture was removed at each time interval for analysis.
compound,measurement,setting,value
"CC[N+](CC)(CC(=O)Nc1c(C)cccc1C)Cc1ccccc1 [Uncoated Bitrex, Denatonium benzoate]",visual observation of dissolution,[1],fully dissolved
same,% release of Bitrex relative to the total content,[2]; 5 minutes,99.6%
same,% release of Bitrex relative to the total content,[2]; 15 minutes,99.8%
